Reference: ChEMBL document CHEMBL1149762, “Carbamate prodrugs of N-alkylfuramidines” (Eur J Med Chem, 2008)

Key:
Rattus norvegicus [1] = assay: Toxicity against immunosuppressed rat pneumocystis model at 22.0 umol/kg/day, iv; format: organism-based; settings: in vivo
Rattus norvegicus [2] = assay: Toxicity against immunosuppressed rat pneumocystis model at 33.0 umol/kg/day, po; format: organism-based; settings: in vivo
Pneumocystis carinii [3] = assay: Antimicrobial activity against Pneumocystis carinii in immunosuppressed rat assessed as number of cysts/g of lung at 22.0 umol/kg/day, iv relative to control; format: functional
Pneumocystis carinii [4] = assay: Antimicrobial activity against Pneumocystis carinii in immunosuppressed rat assessed as number of cysts/g of lung at 33.0 umol/kg/day, po relative to control; format: functional
Pneumocystis carinii [5] = assay: Antimicrobial activity against Pneumocystis carinii in immunosuppressed rat assessed as number of cysts/g of lung at 11.0 umol/kg/day, iv relative to control; format: functional
Rattus norvegicus [6] = assay: Toxicity against immunosuppressed rat pneumocystis model at 11.0 umol/kg/day, iv; format: organism-based; settings: in vivo
Rattus norvegicus [7] = assay: Toxicity against immunosuppressed rat pneumocystis model at 10.8 umol/kg/day, iv; format: organism-based; settings: in vivo
Pneumocystis carinii [8] = assay: Antimicrobial activity against Pneumocystis carinii in immunosuppressed rat assessed as number of cysts/g of lung at 10.8 umol/kg/day, iv relative to control; format: functional
Pneumocystis carinii [9] = assay: Antimicrobial activity against Pneumocystis carinii in immunosuppressed rat assessed as number of cysts/g of lung at 9.4 umol/kg/day, iv relative to control; format: functional
Pneumocystis carinii [10] = assay: Antimicrobial activity against Pneumocystis carinii in immunosuppressed rat assessed as number of cysts/g of lung at 13.3 umol/kg/day, iv relative to control; format: functional
Rattus norvegicus [11] = assay: Toxicity against immunosuppressed rat pneumocystis model at 39.8 umol/kg/day, po; format: organism-based; settings: in vivo
Rattus norvegicus [12] = assay: Toxicity against immunosuppressed rat pneumocystis model at 13.3 umol/kg/day, iv; format: organism-based; settings: in vivo
Pneumocystis carinii [13] = assay: Antimicrobial activity against Pneumocystis carinii in immunosuppressed rat assessed as number of cysts/g of lung at 39.8 umol/kg/day, po relative to control; format: functional

Compound	Activity (Rattus norvegicus [1])	Activity (Rattus norvegicus [2])	Activity (Pneumocystis carinii [3])	Activity (Pneumocystis carinii [4])	other results
O=C(/N=C(\NC1CCCC1)c1ccc(-c2ccc(-c3ccc(/C(=N\C(=O)OCC(Cl)(Cl)Cl)NC4CCCC4)cc3)o2)cc1)OCC(Cl)(Cl)Cl	Non-toxic	Non-toxic	39.84%	3.7%	–
CCOC(=O)/N=C(\NC(C)C)c1ccc(-c2ccc(-c3ccc(/C(=N/C(=O)OCC)NC(C)C)cc3)o2)cc1	–	Non-toxic	–	51.92%	Activity (Pneumocystis carinii [5]): 82.21%; Activity (Rattus norvegicus [6]): Non-toxic
N/C(=N\C(=O)OCC(Cl)(Cl)Cl)c1ccc(-c2ccc(-c3ccc(/C(N)=N\C(=O)OCC(Cl)(Cl)Cl)cc3)o2)cc1	Non-toxic	Non-toxic	1.72%	5.45%	–
CC(C)NC(=N)c1ccc(-c2ccc(-c3ccc(C(=N)NC(C)C)cc3)o2)cc1	–	Non-toxic	–	78.52%	Activity (Rattus norvegicus [7]): Non-toxic; Activity (Pneumocystis carinii [8]): 0.26%
N=C(N)c1ccc(OCCCCCOc2ccc(C(=N)N)cc2)cc1 [PENTAMIDINE]	–	Non-toxic	2.75%	67.78%	–
CC(C)N/C(=N\C(=O)OCC(Cl)(Cl)Cl)c1ccc(-c2ccc(-c3ccc(/C(=N\C(=O)OCC(Cl)(Cl)Cl)NC(C)C)cc3)o2)cc1	Non-toxic	Non-toxic	0.02%	2.01%	–
N=C(NC1CCCC1)c1ccc(-c2ccc(-c3ccc(C(=N)NC4CCCC4)cc3)o2)cc1	–	Non-toxic	–	125.3%	Activity (Pneumocystis carinii [9]): 0.04%
CONC(=N)c1ccc(-c2ccc(-c3ccc(C(=N)NOC)cc3)o2)cc1 [PAFURAMIDINE]	Non-toxic	Non-toxic	13.99%	1.21%	–
N=C(N)c1ccc(-c2ccc(-c3ccc(C(=N)N)cc3)o2)cc1 [FURAMIDINE]	–	–	–	–	Activity (Pneumocystis carinii [10]): 0.86%; Activity (Rattus norvegicus [11]): Non-toxic; Activity (Rattus norvegicus [12]): Non-toxic; Activity (Pneumocystis carinii [13]): 15.67%
